Data taken from PMC11031590, “Narazaciclib, a novel multi-kinase inhibitor with potent activity against CSF1R, FLT3 and CDK6, shows strong anti-AML activity in defined preclinical models” (Scientific Reports, 2024).

Columns and labels:
Ba/F3-FLT3-ITD (D835Y) = Ba/F3-FLT3-ITD (D835Y) proliferation assay; format: cell-based, mouse
Protocol: (§1) The recombinant Ba/F3 cell lines overexpressing human CSF1R, or human RBM6-CSF1R, or human ETV6-CSF1R were generated using a retrovirus vector (Kyinno Co., Ltd. Beijing). The recombinant Ba/F3 lines overexpressing human Kras G12C orEGFR-L718Q mutants, and different mutant variants of FLT3 were also similarly created as well. A standard proliferation assay via CTG readout was performed according to the vendor’s instructions (KYinno Biotechnology Co., Ltd. Beijing).

Ba/F3-FLT3-F691L = Ba/F3-FLT3-F691L proliferation assay; format: cell-based, mouse
Protocol: as §1

ABL-1 = ABL-1 (Homo sapiens, UniProt P00519); test: Additional kinase inhibition panel; format: biochemical
Description: (§2) Supplement 41598_2024_59650_MOESM2_ESM.docx, table 4: Supplemental Table S4. IC50 of Narazaciclib against additional kinases | column: Narazaciclib (µM); Narazaciclib metabolite (µM)

C-Kit = C-Kit (Homo sapiens, UniProt P10721); test: Additional kinase inhibition panel; format: biochemical
Description: as §2

CDK9 = CDK9 (Homo sapiens, UniProt P50750); test: Additional kinase inhibition panel; format: biochemical
Description: as §2

FGFR1 = FGFR1 (Homo sapiens, UniProt P11362); test: Additional kinase inhibition panel; format: biochemical
Description: as §2

FGFR2 = FGFR2 (Homo sapiens, UniProt P21802); test: Additional kinase inhibition panel; format: biochemical
Description: as §2

FGFR3 = FGFR3 (Homo sapiens, UniProt P22607); test: Additional kinase inhibition panel; format: biochemical
Description: as §2

FGFR4 = FGFR4 (Homo sapiens, UniProt P22455); test: Additional kinase inhibition panel; format: biochemical
Description: as §2

PDGFRα = PDGFRα (Homo sapiens, UniProt P16234); test: Additional kinase inhibition panel; format: biochemical
Description: as §2

PDGFRβ = PDGFRβ (Homo sapiens, UniProt P09619); test: Additional kinase inhibition panel; format: biochemical
Description: as §2

RET = RET (Homo sapiens, UniProt P07949); test: Additional kinase inhibition panel; format: biochemical
Description: as §2

SIK1 = SIK1 (Homo sapiens, UniProt P57059); test: Additional kinase inhibition panel; format: biochemical
Description: as §2

SIK2 = SIK2 (Homo sapiens, UniProt Q9H0K1); test: Additional kinase inhibition panel; format: biochemical
Description: as §2

SIK3 = SIK3 (Homo sapiens, UniProt Q9Y2K2); test: Additional kinase inhibition panel; format: biochemical
Description: as §2

AM8096 AML-PDX = test: AM8096 systemic AML-PDX model; format: in vivo, NOD/scid mice
Protocol: (§3) For systemic AML-PDX models, the model establishment and narazaciclib pharmacology experiment were performed essentially as described previously. Briefly, 2 × 10^6 AM7407 cells, or 2 × 10^6 AM7577 cells, or 2 × 10^6 AM5512 cells, or 1.65 × 10^6 AM8096 cells were inoculated intravenously into 4- to 5-week-old female NOD/scid mice for AML development. Engraftment was confirmed by the presence of circulating human CD45+ cells (anti-human CD45 antibody, Cat. 304038, Biolegend) in peripheral blood. Mice with successful engraftment of AML-PDX were randomized into different treatment groups (N = 6) and received their designated treatments. Narazaciclib was administrated orally or intraperitoneally at 10 mg/kg, or 30 mg/kg, or 100 mg/kg every day throughout the study, while Cytarabine was administrated intraperitoneally at 3 mg/kg every day. Following the initiation of designated treatments, leukemic burden was monitored by flow cytometry with anti-human CD45 antibody on the peripheral blood every week as well as on the peripheral blood, bone marrow cells and splenocytes of mice at sacrifice. Mice were sacrifice once the followings are observed: body weight loss over 20%, reduced motility and activity, labored breathing, ruffled coat, hunched back and severe dehydration.

AM5512 AML-PDX = test: AM5512 systemic AML-PDX model; format: in vivo, NOD/scid mice; conditions: AM5512, 100 mg/kg orally every day
Protocol: as §3

Sequence of FGFR1 (P11362 22-822): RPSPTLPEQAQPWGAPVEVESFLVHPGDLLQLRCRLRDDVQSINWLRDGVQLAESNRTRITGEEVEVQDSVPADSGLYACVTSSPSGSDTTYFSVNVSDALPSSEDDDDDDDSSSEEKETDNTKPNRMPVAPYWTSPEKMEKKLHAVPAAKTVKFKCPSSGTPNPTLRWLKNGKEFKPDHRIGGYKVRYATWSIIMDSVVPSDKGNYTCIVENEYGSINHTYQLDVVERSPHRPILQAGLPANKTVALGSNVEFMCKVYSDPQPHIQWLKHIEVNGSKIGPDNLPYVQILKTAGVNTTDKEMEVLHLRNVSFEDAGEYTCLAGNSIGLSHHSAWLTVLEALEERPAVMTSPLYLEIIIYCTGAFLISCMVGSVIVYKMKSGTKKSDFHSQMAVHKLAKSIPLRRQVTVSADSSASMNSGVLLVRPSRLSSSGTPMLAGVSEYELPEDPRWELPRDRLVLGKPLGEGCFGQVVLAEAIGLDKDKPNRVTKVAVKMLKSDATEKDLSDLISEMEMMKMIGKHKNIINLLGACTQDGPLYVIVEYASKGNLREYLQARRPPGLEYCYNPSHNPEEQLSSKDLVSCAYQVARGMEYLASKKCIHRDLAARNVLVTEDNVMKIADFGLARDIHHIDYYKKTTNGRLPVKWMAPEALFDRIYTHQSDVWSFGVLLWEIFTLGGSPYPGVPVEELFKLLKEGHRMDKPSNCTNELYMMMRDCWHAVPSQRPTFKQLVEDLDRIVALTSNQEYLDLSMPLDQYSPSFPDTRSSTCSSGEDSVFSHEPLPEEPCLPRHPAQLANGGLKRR
Sequence of SIK3 (Q9Y2K2 whole entry): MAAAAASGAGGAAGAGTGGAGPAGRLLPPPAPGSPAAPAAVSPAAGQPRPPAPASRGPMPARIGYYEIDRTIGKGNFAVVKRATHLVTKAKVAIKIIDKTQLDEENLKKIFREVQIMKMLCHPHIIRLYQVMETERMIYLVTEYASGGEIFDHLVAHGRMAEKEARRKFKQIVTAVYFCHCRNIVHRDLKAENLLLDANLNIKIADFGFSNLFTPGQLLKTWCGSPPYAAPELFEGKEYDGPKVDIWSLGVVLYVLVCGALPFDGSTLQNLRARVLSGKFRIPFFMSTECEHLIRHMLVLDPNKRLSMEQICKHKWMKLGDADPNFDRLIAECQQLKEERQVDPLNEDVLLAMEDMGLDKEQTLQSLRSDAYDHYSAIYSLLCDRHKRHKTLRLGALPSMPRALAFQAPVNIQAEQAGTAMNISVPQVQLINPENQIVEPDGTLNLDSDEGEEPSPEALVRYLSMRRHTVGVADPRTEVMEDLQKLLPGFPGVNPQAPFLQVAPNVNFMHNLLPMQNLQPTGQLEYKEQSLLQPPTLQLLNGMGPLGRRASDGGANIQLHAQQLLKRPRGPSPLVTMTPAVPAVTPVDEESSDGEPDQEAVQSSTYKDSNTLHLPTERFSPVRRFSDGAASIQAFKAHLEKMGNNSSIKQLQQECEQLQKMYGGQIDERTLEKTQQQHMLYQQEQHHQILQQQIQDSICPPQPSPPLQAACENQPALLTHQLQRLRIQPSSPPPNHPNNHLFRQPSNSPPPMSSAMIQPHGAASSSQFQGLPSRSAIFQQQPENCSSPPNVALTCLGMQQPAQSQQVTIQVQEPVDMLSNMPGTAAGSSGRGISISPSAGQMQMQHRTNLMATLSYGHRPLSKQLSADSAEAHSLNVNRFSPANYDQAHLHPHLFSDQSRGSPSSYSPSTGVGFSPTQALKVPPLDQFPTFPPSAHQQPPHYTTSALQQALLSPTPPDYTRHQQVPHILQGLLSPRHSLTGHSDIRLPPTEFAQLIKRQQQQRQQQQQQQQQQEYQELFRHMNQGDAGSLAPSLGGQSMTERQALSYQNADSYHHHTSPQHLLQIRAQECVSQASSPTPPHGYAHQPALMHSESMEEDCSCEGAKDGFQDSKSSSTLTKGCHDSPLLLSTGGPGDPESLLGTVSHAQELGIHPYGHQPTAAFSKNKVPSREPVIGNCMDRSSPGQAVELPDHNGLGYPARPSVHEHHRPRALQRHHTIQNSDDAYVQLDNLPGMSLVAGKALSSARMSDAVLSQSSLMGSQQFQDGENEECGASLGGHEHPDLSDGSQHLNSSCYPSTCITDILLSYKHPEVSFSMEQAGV
Sequence of RET (P07949 29-1114): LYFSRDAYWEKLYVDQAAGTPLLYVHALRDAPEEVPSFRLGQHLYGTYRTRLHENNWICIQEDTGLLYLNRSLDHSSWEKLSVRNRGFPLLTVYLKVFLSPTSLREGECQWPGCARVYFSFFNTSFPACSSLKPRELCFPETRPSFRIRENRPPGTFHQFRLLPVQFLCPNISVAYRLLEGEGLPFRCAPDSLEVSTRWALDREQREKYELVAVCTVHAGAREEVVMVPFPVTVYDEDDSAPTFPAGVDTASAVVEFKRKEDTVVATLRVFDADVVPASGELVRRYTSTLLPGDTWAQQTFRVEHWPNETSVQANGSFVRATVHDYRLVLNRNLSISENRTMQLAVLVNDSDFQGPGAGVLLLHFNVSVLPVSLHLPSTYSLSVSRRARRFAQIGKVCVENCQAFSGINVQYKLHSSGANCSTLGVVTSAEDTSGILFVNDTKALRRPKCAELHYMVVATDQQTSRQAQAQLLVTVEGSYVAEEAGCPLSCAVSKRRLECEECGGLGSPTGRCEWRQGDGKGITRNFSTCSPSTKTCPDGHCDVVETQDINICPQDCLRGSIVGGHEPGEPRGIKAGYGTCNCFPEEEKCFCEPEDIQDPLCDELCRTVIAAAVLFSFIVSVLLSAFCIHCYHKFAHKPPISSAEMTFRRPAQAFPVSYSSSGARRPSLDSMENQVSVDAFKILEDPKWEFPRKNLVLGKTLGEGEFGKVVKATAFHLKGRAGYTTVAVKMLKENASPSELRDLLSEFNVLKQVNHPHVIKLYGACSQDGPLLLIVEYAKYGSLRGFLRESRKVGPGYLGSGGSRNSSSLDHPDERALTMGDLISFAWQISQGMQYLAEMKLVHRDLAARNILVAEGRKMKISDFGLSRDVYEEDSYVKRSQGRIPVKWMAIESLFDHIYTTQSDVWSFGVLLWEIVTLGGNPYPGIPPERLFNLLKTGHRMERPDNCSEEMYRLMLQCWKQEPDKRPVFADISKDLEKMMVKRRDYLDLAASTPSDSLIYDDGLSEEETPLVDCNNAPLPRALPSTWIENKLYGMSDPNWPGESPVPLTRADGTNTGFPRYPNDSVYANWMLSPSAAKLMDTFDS
Sequence of ABL-1 (P00519 whole entry): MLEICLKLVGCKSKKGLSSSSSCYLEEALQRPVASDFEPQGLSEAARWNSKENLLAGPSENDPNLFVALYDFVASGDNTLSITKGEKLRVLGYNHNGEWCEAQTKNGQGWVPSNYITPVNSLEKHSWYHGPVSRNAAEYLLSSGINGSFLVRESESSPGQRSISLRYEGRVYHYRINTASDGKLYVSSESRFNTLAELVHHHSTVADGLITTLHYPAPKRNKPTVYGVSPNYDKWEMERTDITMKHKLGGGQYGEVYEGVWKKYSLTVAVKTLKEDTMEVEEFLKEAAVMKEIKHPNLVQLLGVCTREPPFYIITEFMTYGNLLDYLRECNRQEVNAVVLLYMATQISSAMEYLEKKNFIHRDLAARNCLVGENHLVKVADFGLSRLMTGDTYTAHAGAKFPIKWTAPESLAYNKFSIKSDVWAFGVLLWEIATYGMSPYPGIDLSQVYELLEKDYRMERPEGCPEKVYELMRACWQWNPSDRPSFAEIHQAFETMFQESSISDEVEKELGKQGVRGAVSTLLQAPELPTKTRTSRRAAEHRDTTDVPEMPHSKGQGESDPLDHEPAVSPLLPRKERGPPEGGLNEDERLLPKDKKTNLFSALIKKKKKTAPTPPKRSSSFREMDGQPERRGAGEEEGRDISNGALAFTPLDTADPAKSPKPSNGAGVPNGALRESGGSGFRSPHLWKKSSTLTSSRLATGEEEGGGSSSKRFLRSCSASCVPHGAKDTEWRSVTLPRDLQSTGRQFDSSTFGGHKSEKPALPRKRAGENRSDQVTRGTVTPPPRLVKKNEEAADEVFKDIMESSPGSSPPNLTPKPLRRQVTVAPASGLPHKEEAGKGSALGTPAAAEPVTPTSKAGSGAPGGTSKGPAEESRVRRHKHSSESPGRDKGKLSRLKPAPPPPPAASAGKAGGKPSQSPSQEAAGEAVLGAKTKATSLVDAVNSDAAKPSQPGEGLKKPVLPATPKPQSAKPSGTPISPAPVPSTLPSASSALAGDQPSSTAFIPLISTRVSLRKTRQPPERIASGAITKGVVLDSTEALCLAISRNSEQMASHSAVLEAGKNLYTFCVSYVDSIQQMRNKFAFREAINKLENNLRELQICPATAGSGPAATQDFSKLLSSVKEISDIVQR
Sequence of SIK1 (P57059 whole entry): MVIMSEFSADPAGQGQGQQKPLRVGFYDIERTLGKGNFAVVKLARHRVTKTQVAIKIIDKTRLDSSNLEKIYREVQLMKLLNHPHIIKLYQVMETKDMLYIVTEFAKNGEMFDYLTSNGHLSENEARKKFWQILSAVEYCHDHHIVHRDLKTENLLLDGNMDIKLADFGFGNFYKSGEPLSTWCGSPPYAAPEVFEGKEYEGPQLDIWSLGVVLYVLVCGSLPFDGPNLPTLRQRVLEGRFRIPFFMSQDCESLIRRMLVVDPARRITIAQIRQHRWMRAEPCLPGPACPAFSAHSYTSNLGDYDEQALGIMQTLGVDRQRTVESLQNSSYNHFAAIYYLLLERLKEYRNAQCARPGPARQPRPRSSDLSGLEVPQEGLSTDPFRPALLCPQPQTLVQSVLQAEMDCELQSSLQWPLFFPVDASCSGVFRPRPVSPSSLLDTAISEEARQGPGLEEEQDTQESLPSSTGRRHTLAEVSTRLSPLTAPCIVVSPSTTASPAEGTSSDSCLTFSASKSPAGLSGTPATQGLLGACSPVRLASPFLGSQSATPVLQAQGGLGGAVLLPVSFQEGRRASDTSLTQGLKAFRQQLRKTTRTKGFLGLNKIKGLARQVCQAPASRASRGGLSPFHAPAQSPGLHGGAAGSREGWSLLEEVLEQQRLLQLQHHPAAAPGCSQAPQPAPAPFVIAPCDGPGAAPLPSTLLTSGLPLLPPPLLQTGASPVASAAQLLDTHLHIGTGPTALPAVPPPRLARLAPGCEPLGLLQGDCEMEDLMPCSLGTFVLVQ

% of Ba/F3-FLT3 (IC50) (Ba/F3-FLT3-ITD (D835Y)): 20.19% | IC50 (Ba/F3-FLT3-ITD (D835Y); Mus musculus): 0.0608 µM | % of Ba/F3-FLT3 (IC50) (Ba/F3-FLT3-F691L): 44.19% | IC50 (Ba/F3-FLT3-F691L; Mus musculus): 0.133 µM | IC50 (ABL-1): 0.038 µM | IC50 (C-Kit): 0.009 µM | IC50 (CDK9): 0.028 µM | IC50 (FGFR1): 0.038 µM | IC50 (FGFR2): 0.02 µM | IC50 (FGFR3): 0.187 µM | IC50 (FGFR4): 2.74 µM | IC50 (PDGFRα): 0.104 µM | IC50 (PDGFRβ): 0.01 µM | IC50 (RET): 0.016 µM | IC50 (SIK1): 0.034 µM | IC50 (SIK2): 0.002 µM | IC50 (SIK3): 0.024 µM
SMILES: CN1CCN(c2ccc(Nc3ncc4cc(C#N)c(=O)n(C5CCCC5)c4n3)cc2)CC1 [Narazaciclib, narazaciclib]
leukemic load in peripheral blood, spleen and bone marrow (AM8096 AML-PDX; AM8096): reduce the leukemic load in peripheral blood and spleen, but also the leukemic load in bone marrow | leukemic burdens, dose dependence (AM8096 AML-PDX; AM8096, different dose levels): reduced the leukemic burdens in a dose-dependent manner | response of model (AM8096 AML-PDX; AM8096, narazaciclib 100 mg/kg intraperitoneally every day): responded completely | response of model (AM5512 AML-PDX): did not respond
